From patent US20220071971A1, “MACROCYCLIC COMPOUNDS AND THEIR USE IN THE TREATMENT OF DISEASE” (NOVARTIS AG, priority 2018, published 2022)

Target: T1, delF508-CFTR (Homo sapiens, UniProt P13569, DEL508-508)
T1 construct: expressed in transfected cells
Assay: Measurement of delF508-CFTR-HRP surface expression in CFBE41o- cells
Format: cell-based
Conditions: for Emax: CFBE41o-, efficacy relative to reference compound 3-(6-(1-(2,2-difluorobenzo[d][1,3]dioxol-5-yl)cyclopropane-1-carboxamido)-3-methylpyridin-2-yl)benzoic acid, read-out: DelF508-CFTR-HRP Amax %; for EC50: HRP-tagged delF508-CFTR surface expression, CFBE41o- cells, 24 h with compound, 10-point curve, highest concentration 10 μM
How it was run: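 CFBE41o- cells stably expressing delF508-CFTR with HRP in the fourth extracellular loop, induced 48 h with 500 ng/mL doxycycline, then exposed to compound (10-point, 3-fold, top 10 μM, ≤0.5% DMSO) for 24 h at 37° C. Surface HRP read by luminescence with cell-impermeant substrate; EC50 by logistic fit, triplicates, efficacy relative to reference corrector.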

T1 sequence (P13569 with tags, fused parts or gaps DEL508-508): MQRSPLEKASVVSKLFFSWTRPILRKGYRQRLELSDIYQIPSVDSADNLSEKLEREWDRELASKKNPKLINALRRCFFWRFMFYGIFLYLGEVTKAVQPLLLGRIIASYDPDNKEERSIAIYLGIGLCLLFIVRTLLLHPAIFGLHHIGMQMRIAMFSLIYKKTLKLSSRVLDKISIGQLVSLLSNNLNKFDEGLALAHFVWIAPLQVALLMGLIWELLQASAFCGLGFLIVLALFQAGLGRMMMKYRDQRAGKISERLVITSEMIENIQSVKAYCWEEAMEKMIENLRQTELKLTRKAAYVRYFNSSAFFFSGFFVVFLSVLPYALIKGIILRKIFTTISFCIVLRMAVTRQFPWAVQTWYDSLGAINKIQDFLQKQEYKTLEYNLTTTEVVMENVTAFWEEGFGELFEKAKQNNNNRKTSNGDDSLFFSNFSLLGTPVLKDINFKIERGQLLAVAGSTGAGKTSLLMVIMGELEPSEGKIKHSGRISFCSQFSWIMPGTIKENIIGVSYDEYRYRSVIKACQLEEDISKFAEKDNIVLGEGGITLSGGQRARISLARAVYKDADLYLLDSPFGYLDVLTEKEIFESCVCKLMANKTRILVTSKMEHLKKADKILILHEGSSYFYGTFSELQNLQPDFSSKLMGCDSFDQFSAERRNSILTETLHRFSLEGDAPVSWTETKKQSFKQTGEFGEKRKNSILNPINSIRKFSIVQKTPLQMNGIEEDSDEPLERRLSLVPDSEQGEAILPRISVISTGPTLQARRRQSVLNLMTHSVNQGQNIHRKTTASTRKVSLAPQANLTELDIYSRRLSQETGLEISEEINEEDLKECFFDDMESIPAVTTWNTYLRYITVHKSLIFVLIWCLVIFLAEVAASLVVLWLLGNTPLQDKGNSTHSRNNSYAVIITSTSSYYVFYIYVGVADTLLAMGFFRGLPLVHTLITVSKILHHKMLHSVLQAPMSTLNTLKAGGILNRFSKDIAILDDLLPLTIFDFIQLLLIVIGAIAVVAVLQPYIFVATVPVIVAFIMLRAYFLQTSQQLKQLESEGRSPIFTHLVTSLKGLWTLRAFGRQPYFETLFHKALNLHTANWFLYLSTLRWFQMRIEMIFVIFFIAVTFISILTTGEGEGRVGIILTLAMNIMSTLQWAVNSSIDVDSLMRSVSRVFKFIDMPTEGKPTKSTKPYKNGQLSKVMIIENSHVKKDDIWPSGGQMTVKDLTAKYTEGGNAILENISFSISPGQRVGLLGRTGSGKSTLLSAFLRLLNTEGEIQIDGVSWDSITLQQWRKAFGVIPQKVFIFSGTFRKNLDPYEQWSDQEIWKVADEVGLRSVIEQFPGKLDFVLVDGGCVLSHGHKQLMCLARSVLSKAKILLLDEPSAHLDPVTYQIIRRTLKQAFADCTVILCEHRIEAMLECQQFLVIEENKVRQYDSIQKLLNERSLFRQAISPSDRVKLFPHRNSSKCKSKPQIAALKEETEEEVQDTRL

SMILES | Emax [%] | EC50 [nM]
CN1CCCN(C)c2ncccc2-c2nc(ccc2C(F)(F)F)NS(=O)(=O)c2cccc1n2 [Compound 9, 6,10-dimethyl-2^3-(trifluoromethyl)-4-thia-3,6,10-triaza-1(3,2),2,5(2,6)-tripyridinacyclodecaphane 4,4-dioxide] | 367 | 1710
O=S1(=O)Nc2ccc(C(F)(F)F)c(n2)-c2ccccc2CCCCCN(C[C@H](O)[C@@H](O)CO)c2cccc1n2 [Compound 129, 2^3-(trifluoromethyl)-6-((2S,3S)-2,3,4-trihydroxybutyl)-4-thia-3,6-diaza-2,5(2,6)-dipyridina-1(1,2)-benzenacycloundecaphane 4,4-dioxide] | 506 | 265
O=S1(=O)Nc2ccc(C(F)(F)F)c(n2)-c2ccccc2CCCCCN(CCN2CCNCC2)c2cccc1n2 [Compound 121, 6-(2-(piperazin-1-yl)ethyl)-2^3-(trifluoromethyl)-4-thia-3,6-diaza-2,5(2,6)-dipyridina-1(1,2)-benzenacycloundecaphane 4,4-dioxide] | 348 | 495
O=C(O)C1(CN2CCOCCCc3ccccc3-c3nc(ccc3C(F)(F)F)NS(=O)(=O)c3cccc2n3)CC1 [Compound 95, 1-((4,4-dioxido-2^3-(trifluoromethyl)-9-oxa-4-thia-3,6-diaza-2,5(2,6)-dipyridina-1(1,2)-benzenacyclododecaphane-6-yl)methyl)cyclopropane-1-carboxylic acid] |  | 1320
COC(=O)CNCCN1CCCCCc2ccccc2-c2nc(ccc2C(F)(F)F)NS(=O)(=O)c2cccc1n2 [Compound 126, methyl (2-(4,4-dioxido-2^3-(trifluoromethyl)-4-thia-3,6-diaza-2,5(2,6)-dipyridina-1(1,2)-benzenacycloundecaphane-6-yl)ethyl)glycinate] | 488 | 831
O=C(O)CCCN1CCCCCc2ccccc2-c2nc(ccc2Cl)NS(=O)(=O)c2cccc1n2 [Compound 79, 4-(2^3-chloro-4,4-dioxido-4-thia-3,6-diaza-2,5(2,6)-dipyridina-1(1,2)-benzenacycloundecaphane-6-yl)butanoic acid] |  | 1600
O=S1(=O)Nc2ccc(C(F)(F)F)c(n2)-c2cc(F)ccc2CCCCCNc2cccc1n2 [Compound 31, 1^5-fluoro-2^3-(trifluoromethyl)-4-thia-3,6-diaza-2,5(2,6)-dipyridina-1(1,2)-benzenacycloundecaphane 4,4-dioxide] | 580 | 614
Cc1ccnc2c1-c1nc(ccc1Cl)NS(=O)(=O)c1cccc(n1)NCCCCCN2 [Compound 106, 2^3-chloro-1^4-methyl-4-thia-3,6,12-triaza-1(3,2),2,5(2,6)-tripyridinacyclododecaphane 4,4-dioxide] | 287 | 1410
O=S1(=O)Nc2ccc(C(F)(F)F)c(n2)-c2ccccc2OCCCCNc2cccc1n2 [Compound 1, 2^3-(trifluoromethyl)-11-oxa-4-thia-3,6-diaza-2,5(2,6)-dipyridina-1(1,2)-benzenacycloundecaphane 4,4-dioxide] | 372 | 978
CN1CCN(CCN2CCCCCc3ccccc3-c3nc(ccc3C(F)(F)F)NS(=O)(=O)c3cccc2n3)CC1 [Compound 125, 6-(2-(4-methylpiperazin-1-yl)ethyl)-2^3-(trifluoromethyl)-4-thia-3,6-diaza-2,5(2,6)-dipyridina-1(1,2)-benzenacycloundecaphane 4,4-dioxide] | 162 | 931
O=S1(=O)Nc2ccc(C(F)(F)F)c(n2)-c2cccnc2NCCCCCNc2cccc1n2 [Compound 6, 2^3-(trifluoromethyl)-4-thia-3,6,12-triaza-1(3,2),2,5(2,6)-tripyridinacyclododecaphane 4,4-dioxide] | 248 | 1680
O=C1C2CCCCC2C(=O)N1CCCN1CCCCCc2ccccc2-c2nc(ccc2C(F)(F)F)NS(=O)(=O)c2cccc1n2 (centres unmarked) [Compound 134, 2-(3-(4,4-dioxido-2^3-(trifluoromethyl)-4-thia-3,6-diaza-2,5(2,6)-dipyridina-1(1,2)-benzenacycloundecaphane-6-yl)propyl)hexahydro-1H-isoindole-1,3(2H)-dione] | 410 | 608
O=C(O)CCCN1CCCOCc2ccccc2-c2nc(ccc2C(F)(F)F)NS(=O)(=O)c2cccc1n2 [Compound 102, 4-(4,4-dioxido-2^3-(trifluoromethyl)-10-oxa-4-thia-3,6-diaza-2,5(2,6)-dipyridina-1(1,2)-benzenacycloundecaphane-6-yl)butanoic acid] |  | 2300
O=C(O)CCN1CCCCCc2ccc(F)cc2-c2nc(ccc2C(F)(F)F)NS(=O)(=O)c2cccc1n2 [Compound 97, 3-(1^5-fluoro-4,4-dioxido-2^3-(trifluoromethyl)-4-thia-3,6-diaza-2,5(2,6)-dipyridina-1(1,2)-benzenacycloundecaphane-6-yl)propanoic acid] | 728 | 747
O=S1(=O)Nc2ccc(C(F)(F)F)c(n2)-c2ccccc2CCCCNc2cccc1n2 [Compound 115, 2^3-(trifluoromethyl)-4-thia-3,6-diaza-2,5(2,6)-dipyridina-1(1,2)-benzenacyclodecaphane 4,4-dioxide] | 430 | 456

More lines, now with the values ahead:

Emax [%] | EC50 [nM] | SMILES
306 | 1420 | O=C(O)CCN1CCCCc2ccccc2-c2nc(ccc2C(F)(F)F)NS(=O)(=O)c2cccc1n2 [Compound 87, 3-(4,4-dioxido-2^3-(trifluoromethyl)-4-thia-3,6-diaza-2,5(2,6)-dipyridina-1(1,2)-benzenacyclodecaphane-6-yl)propanoic acid]
 | 421 | O=C(O)CCCN1CCCCCCc2ccccc2-c2nc(ccc2C(F)(F)F)NS(=O)(=O)c2cccc1n2 [Compound 76, 4-(4,4-dioxido-2^3-(trifluoromethyl)-4-thia-3,6-diaza-2,5(2,6)-dipyridina-1(1,2)-benzenacyclododecaphane-6-yl)butanoic acid]
435 | 275 | O=S1(=O)Nc2ccc(C(F)(F)F)c(n2)-c2ccccc2CCCCCN(CC(O)CO)c2cccc1n2 (centres unmarked) [Compound 128, 6-(2,3-dihydroxypropyl)-2^3-(trifluoromethyl)-4-thia-3,6-diaza-2,5(2,6)-dipyridina-1(1,2)-benzenacycloundecaphane 4,4-dioxide]
382 | 1640 | O=S1(=O)Nc2ccc(C(F)(F)F)c(n2)-c2ccccc2CCCCCN(CCN2CC(O)C2)c2cccc1n2 [Compound 124, 6-(2-(3-hydroxyazetidin-1-yl)ethyl)-2^3-(trifluoromethyl)-4-thia-3,6-diaza-2,5(2,6)-dipyridina-1(1,2)-benzenacycloundecaphane 4,4-dioxide]
708 | 304 | O=S1(=O)Nc2ccc(C(F)(F)F)c(n2)-c2ccccc2CCCCCN(CCCCCO)c2cccc1n2 [Compound 15, 6-(5-hydroxypentyl)-2^3-(trifluoromethyl)-4-thia-3,6-diaza-2,5(2,6)-dipyridina-1(1,2)-benzenacycloundecaphane 4,4-dioxide]
517 | 146 | O=S1(=O)Nc2ccc(C(F)(F)F)c(n2)-c2ccccc2CCCCCN(CCCO)c2cccc1n2 [Compound 29, 6-(3-hydroxypropyl)-2^3-(trifluoromethyl)-4-thia-3,6-diaza-2,5(2,6)-dipyridina-1(1,2)-benzenacycloundecaphane 4,4-dioxide]
 | 220 | O=S1(=O)Nc2ccc(C(F)(F)F)c(n2)-c2ccccc2CCCCCCCN(CCCCO)c2cccc1n2 [Compound 40, 6-(4-hydroxybutyl)-2^3-(trifluoromethyl)-4-thia-3,6-diaza-2,5(2,6)-dipyridina-1(1,2)-benzenacyclotridecaphane 4,4-dioxide]
489 | 334 | O=S1(=O)Nc2ccc(C(F)(F)F)c(n2)-c2ccccc2CCCCCN(CCOCCCO)c2cccc1n2 [Compound 14, 6-(2-(3-hydroxypropoxy)ethyl)-2^3-(trifluoromethyl)-4-thia-3,6-diaza-2,5(2,6)-dipyridina-1(1,2)-benzenacycloundecaphane 4,4-dioxide]
 | 1040 | O=C(O)CCN1CCCCCCc2ccccc2-c2nc(ccc2C(F)(F)F)NS(=O)(=O)c2cccc1n2 [Compound 84, 3-(4,4-dioxido-2^3-(trifluoromethyl)-4-thia-3,6-diaza-2,5(2,6)-dipyridina-1(1,2)-benzenacyclododecaphane-6-yl)propanoic acid]
 | 368 | COC(=O)CN1CCCCCCc2ccccc2-c2nc(ccc2C(F)(F)F)NS(=O)(=O)c2cccc1n2 [Compound 61, methyl 2-(4,4-dioxido-2^3-(trifluoromethyl)-4-thia-3,6-diaza-2,5(2,6)-dipyridina-1(1,2)-benzenacyclododecaphane-6-yl)acetate]
 | 291 | O=C(O)CCCN1CCCCCCCCc2ccccc2-c2nc(ccc2C(F)(F)F)NS(=O)(=O)c2cccc1n2 [Compound 71, 4-(4,4-dioxido-2^3-(trifluoromethyl)-4-thia-3,6-diaza-2,5(2,6)-dipyridina-1(1,2)-benzenacyclotetradecaphane-6-yl)butanoic acid]
 | 233 | O=S1(=O)Nc2ccc(C(F)(F)F)c(n2)-c2ccccc2CCCCCCCN(CCCO)c2cccc1n2 [Compound 39, 6-(3-hydroxypropyl)-2^3-(trifluoromethyl)-4-thia-3,6-diaza-2,5(2,6)-dipyridina-1(1,2)-benzenacyclotridecaphane 4,4-dioxide]
448 | 165 | O=S1(=O)Nc2ccc(Cl)c(n2)-c2ccccc2CCCCCN(CCCO)c2cccc1n2 [Compound 24, 2^3-chloro-6-(3-hydroxypropyl)-4-thia-3,6-diaza-2,5(2,6)-dipyridina-1(1,2)-benzenacycloundecaphane 4,4-dioxide]
